# Reference: PMC9636434, “Discovery of small molecule agonists of the Relaxin Family Peptide Receptor 2” (Communications Biology, 2022)
# Where “and” joins values, the source holds several entries; their conditions need not be identical. Identical values can stand only once. Entries after “also recorded” stand apart in the source; their conditions may differ.
# Key:
# Type in all cases: cell-based
# [1] = target: T1, mouse RXFP2 (Mus musculus, UniProt Q91ZZ5); test: CRE-luciferase reporter assay in HEK293T-CRE-Luc cells transiently transfected with mouse Rxfp2
# T1 construct: FLAG (N); expressed in transfected cells; host or cells: HEK293T-CRE-Luc (transient)
# Excerpt: Therefore, we examined the capacity of the identified human RXFP2 agonists to activate murine RXFP2. […] The observed difference between CRE-luciferase reporter assays with human and mouse RXFP2 might be due to a lower expression of the receptor in transiently transfected mouse RXFP2 cells compared to the stably transfected human RXFP2 cell line.
# HEK293T-CRE-Luc cells express luciferase under the control of the cAMP response element (CRE), which allows for indirect measurement of intracellular cAMP accumulation. HEK293T-CRE-Luc cells were stably transfected with human RXFP2 (HEK-CRE-Luc-RXFP2) or transiently transfected as above with mouse Rxfp2 (HEK-CRE-Luc-Rxfp2). HEK-CRE-Luc-RXFP2 and HEK-CRE-Luc-Rxfp2 cells were seeded at 15,000 and 30,000 cells per well, respectively, in 96-well plates using serum-free DMEM medium and incubated overnight at 37 °C, 5% CO2. After 18 h, cells were treated with a titration of compound, a titration of INSL3, 5 μM forskolin or DMSO vehicle. After treatment, cells were incubated for 3 h at 37 °C, 5% CO2. […] Plates were incubated for 40 min at room temperature protected from light and the luciferase output was read on a CLARIOstar plate reader. […]
# Results are expressed as mean ± SEM of 3 independent experim ents. […]
# [2] = target: T2, mouse RXFP1 (Mus musculus, UniProt Q6R6I7); test: HTRF cAMP counter-screen in HEK293T cells expressing mouse RXFP1; details: for % Eff (cAMP): mouse RXFP1, experiments (1)-(3)
# T2 construct: FLAG (N); expressed in transfected cells
# T2 sequence (Q6R6I7 1-758): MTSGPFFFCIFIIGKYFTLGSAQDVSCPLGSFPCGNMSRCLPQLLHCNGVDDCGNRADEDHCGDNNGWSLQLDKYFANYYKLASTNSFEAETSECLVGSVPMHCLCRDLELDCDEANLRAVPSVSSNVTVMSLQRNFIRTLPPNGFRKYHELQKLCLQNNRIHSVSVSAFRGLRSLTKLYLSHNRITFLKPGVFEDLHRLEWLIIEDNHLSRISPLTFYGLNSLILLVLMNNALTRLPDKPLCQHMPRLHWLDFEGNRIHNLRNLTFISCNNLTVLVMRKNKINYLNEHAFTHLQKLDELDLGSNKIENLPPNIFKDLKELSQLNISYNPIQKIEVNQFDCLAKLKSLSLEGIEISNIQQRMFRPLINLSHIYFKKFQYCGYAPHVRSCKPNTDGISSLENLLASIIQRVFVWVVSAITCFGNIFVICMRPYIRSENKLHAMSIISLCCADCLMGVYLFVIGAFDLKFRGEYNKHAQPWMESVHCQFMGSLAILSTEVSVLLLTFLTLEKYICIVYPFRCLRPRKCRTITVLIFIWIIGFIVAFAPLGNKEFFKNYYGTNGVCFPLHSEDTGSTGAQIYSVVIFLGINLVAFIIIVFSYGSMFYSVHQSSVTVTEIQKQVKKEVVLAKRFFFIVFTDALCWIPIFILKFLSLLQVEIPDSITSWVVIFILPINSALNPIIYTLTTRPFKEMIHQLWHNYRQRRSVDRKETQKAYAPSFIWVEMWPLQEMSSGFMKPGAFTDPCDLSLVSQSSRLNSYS
# Experimental: The HTRF Gs dynamic cAMP assay kit (CisBio, Bedford, MA) was used to measure intracellular cAMP accumulation in HEK293T cells (ATCC, Manassas, VA)[56]. […] The cell stock was verified mycoplasma free and authenticated by ATCC. Transient transfection was accomplished by treating cells in a 6-well plate with a mixture of 2 μg plasmid and 6 μL Lipofectamine 2000 (Invitrogen, Waltham, MA) per manufacturer’s protocol and incubating overnight. For cAMP measurement in 96-well format, HEK293T cells stably transfected with human RXFP2 (HEK-RXFP2), human RXFP1 (HEK-RXFP1), mouse Rxfp1 (HEK-Rxfp1) or transiently transfected with human RXFP1-RXFP2 chimeric receptors were seeded between 7500 and 30,000 cells per well, depending on cell line responsiveness, in serum-free DMEM medium and incubated overnight at 37 °C, 5% CO2. After 18 h, cells were treated with a titration of compound, 2 μM forskolin, or DMSO vehicle. Control wells were also treated with a titration of INSL3 (Phoenix Pharmaceuticals, Burlingame, CA) or human recombinant relaxin 2 (Peprotech, Cranbury, NJ). For the RXFP2 antagonist experiment, cells were co-treated with 0.28 μM compound or 30 nM INSL3 and a titration of the INSL3 B dimer antagonist[38],[39]. For the INSL3 allosteric modulation experiment, cells were co-treated with 0.025, 0.0025, or 0.00025 μM of compound and a titration of INSL3. Cells were incubated for 1 h at 37 °C, 5% CO2, and then kit cAMP-d2 and anti-cAMP antibody were added per manufacturer protocol. Plates were incubated for 1 h at room temperature and the signal was read on a CLARIOstar plate reader (BMG Labtech, Ortenberg, Germany) at 665 and 620 nm emission wavelengths. […]
# receptors. HTRF cAMP counter-screen of RXFP2 agonists in HEK293T cells expressing a human RXFP1 and b mouse RXFP1. Relaxin 2 was used as positive control for RXFP1 receptor activation. Results are expressed as mean ± SEM of 3
# [3] = target: FPR1 (Homo sapiens, UniProt P21462); test: PRESTO-Tango β-arrestin recruitment, FPR1; details: 10 µM compound; basal level of detection 3-fold RLU
# Sequence of FPR1 (P21462 whole entry): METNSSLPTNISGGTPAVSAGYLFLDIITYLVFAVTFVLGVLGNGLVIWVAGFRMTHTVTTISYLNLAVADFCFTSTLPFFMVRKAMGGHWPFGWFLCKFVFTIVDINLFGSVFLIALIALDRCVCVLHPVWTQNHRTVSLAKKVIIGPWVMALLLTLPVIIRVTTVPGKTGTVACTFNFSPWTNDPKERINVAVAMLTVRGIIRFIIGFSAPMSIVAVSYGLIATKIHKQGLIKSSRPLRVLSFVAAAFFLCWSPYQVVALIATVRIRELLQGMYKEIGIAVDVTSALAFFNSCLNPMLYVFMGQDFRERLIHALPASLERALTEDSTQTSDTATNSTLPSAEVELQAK
# T1 sequence (Q91ZZ5 whole entry): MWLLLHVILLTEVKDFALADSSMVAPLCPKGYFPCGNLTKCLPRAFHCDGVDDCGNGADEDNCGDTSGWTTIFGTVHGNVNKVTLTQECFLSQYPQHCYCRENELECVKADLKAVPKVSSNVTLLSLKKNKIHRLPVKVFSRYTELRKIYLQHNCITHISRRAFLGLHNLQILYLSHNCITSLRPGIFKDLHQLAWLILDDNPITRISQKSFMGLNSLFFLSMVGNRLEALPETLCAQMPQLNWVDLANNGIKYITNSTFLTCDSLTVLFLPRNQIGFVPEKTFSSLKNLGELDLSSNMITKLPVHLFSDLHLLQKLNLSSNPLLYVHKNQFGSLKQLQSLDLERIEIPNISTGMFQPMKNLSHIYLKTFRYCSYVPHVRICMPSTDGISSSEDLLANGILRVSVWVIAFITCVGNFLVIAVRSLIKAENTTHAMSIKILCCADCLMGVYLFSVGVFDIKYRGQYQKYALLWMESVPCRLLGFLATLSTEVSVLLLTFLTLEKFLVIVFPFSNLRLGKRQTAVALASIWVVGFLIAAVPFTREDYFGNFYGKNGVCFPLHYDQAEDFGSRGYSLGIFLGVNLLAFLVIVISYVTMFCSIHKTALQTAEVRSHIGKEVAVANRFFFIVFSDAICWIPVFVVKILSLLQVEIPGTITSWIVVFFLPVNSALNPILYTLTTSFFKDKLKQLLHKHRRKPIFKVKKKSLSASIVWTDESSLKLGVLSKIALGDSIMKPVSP
smiles,measurement,setting,value
O=C1Nc2ccc(-c3cc(C(F)(F)F)cc(C(F)(F)F)c3)cc2C(=O)N2CCN(C(=O)COc3ccc(OC(F)(F)F)cc3I)C[C@@H]12 [compound 6641],activation at 0.0251 µM,"[1]; mouse RXFP2, Log [M] -7.60, experiments (1)-(3), read-out: % Eff (CRE-luciferase)",28.9%
same,agonism of mouse RXFP2 in CRE-luciferase reporter assay,[1]; transiently transfected cells,activate the mouse RXFP2 receptor; also recorded: full agonist
same,activation of mouse RXFP1 receptor,[2]; HTRF cAMP,do not activate
same,% Eff (cAMP),[2]; Log [M] -4.60,-2.207% and -2.077% and -4.472%
same,% Eff (cAMP),[2]; Log [M] -5.60,-1.251% and -0.3652% and -2.403%
same,% Eff (cAMP),[2]; Log [M] -6.60,-1.454% and 0.6194% and -2.041%
same,% Eff (cAMP),[2]; Log [M] -7.60,-0.3802% and -0.7758% and -2.5668%
same,"β-arrestin recruitment, FPR1 (mean ± SEM)",[3],3.11 ± 0.29 fold RLU
